# Results published in patent US4505854A, “Optically active dipeptides and the use thereof as tissue dissolving and histolytic agent in human beings” (Nattermann & Cie GmbH, priority 1981, dated 1985).
# Counter-ions that a name gives are not always drawn.
# Columns and labels:
# healthy guineapig skin = details: for activity (induction of necrosis, activation of macrophages): comparison of stereoisomeric 2-phenylglycyl-2-phenylglycine dipeptides; for histolysis / local changes at the administration site: 25 or 50 mg/animal (control 10.7 mg/animal), 7 days
# Description: They were then autopsied and the injection sites (skin and muscle) were subjected to pathological-anatomical and pathological-histological evaluation.
# This is a chemotactic and activating action on macrophages, which also has a tissue dissolving effect. No systemic toxic symptoms or clinically detectable changes could be observed in any of the experimental animals.
# [1] = acute toxicity, intravenous administration to rodents
# [2] = local administration, guineapig skin
SMILES,"activity (induction of necrosis, activation of macrophages) (healthy guineapig skin)",histolysis / local changes at the administration site (healthy guineapig skin; [2]),"LD50 ([1]; acute experiment, administered intravenously (to rodents))","toxicity, times lower than prior dipeptides of essential aminoacids ([1]; compared with 300 mg/kg intravenously (rodents)) [times lower]",general tolerance / systemic toxic symptoms (healthy guineapig skin; in vivo),macrophage and giant cell infiltration at the administration site (healthy guineapig skin; [2])
"N[C@H](C(=O)N[C@H](C(=O)O)c1ccccc1)c1ccccc1 [L-2-phenylglycyl-L-2-phenylglycine, reference compound]",no activity,–,–,–,–,–
"NCC(=O)O [glycine hydrobromide, reference compound]",–,no local changes,–,–,–,–
N[C@@H](C(=O)N[C@@H](C(=O)O)c1ccccc1)c1ccccc1,outstanding properties to induce necrosis and activate macrophages,Local and sharply delineated histolysis,"1,000 mg/kg",3,no indications of general intolerance,massive infiltration of macrophages and giant cells
NC(C(=O)NC(C(=O)O)c1ccccc1)c1ccccc1 (mixture of isomers) [reference compound],only a very low activity,no local changes,–,–,–,–
